Values joined by “and” are separate entries in the source; they are usually repeats but may differ in a detail not shown here. Equal values may be shown once.
How the values were obtained:
[1] = milks produced during the dry-lot regime; cited from earlier work
[2] = oxygen radical absorbance capacity (ORAC) assay; format: biochemical
Method: FIGS. 6 and 7 illustrate ORAC and CAP-e antioxidant tests conducted on Dihydroquercetin (taxifolin). The ORAC test measures the scavenging capacity at 37° C. of peroxyl radical induced by 2,2 -azobis-(2-amidinopropane) dihydrochloride (AAPH) using fluorescence at a wavelength of 565 nm with excitation at 540 nm. The results are calculated and expressed as milimoles of Trolox equivalents per gram. This test is widely used for evaluation and comparison of the antioxidant capacity in natural products and extracts and has been successfully applied to bioavailability studies, showing increased antioxidant capacity in serum in test subjects after consumption of antioxidant-rich foods.
Two different but synergistic testing principles are shown in FIG. 6: (A) The oxygen radical absorbance capacity (ORAC) assay is a chemical test, in which interference with specific chemical reactions are measured; (B) The cell-based antioxidant protection in erythrocytes (CAP-e) assay reflects whether antioxidants can enter into and protect live cells from oxidative damage. Dihydroquercetin (taxifolin) has the ORAChydrophilic assay over 15,000 μmol TE/g.

[3] = test system: rats; conditions: high levels, long periods of time; cited from earlier work
[4] = test system: lipid peroxidation; conditions: in vitro and ex vivo; cited from earlier work
[5] = concentration 0.001%; cooled samples, traditional recipe; day 7 of storage; cited from earlier work
[6] = lard, cottonseed oil, and butter oil; cited from earlier work
[7] = test system: serum and liver lipids; conditions: following exposure to toxic ionizing radiation; cited from earlier work

## O=C1c2c(O)cc(O)cc2OC(c2ccc(O)c(O)c2)C1O (stereo not shown) [Dihydroquercetin (taxifolin)]
[1]
  development of spontaneous oxidation: inhibited
[2]
  ORAChydrophilic assay: over 15,000 μmol TE/g
[3]
  toxic effects: No toxic effects were observed
[4]
  lipid peroxidation: inhibits
[5]
  peroxide values lower by: 57.1% and 58.60%
[6]
  antioxidant effect: effective antioxidant
[7]
  peroxidation of serum and liver lipids: inhibited
